Consider five molecules from PubChem BioAssay AID1745844 (Carcinogenic Potency Database (CPDB), 2022).

The source made the active and inactive calls. No rule for the calls is given here.

The data set relates to rodent lifetime carcinogenesis bioassay, tumor incidence TD50. Briefly: carcinogenic potency in animals, long-term in vivo studies, CPDB compilation (AID 1745844).

`OCC(CO)N[C@H]1C[C@](O)(CO)[C@@H](O)[C@H](O)[C@H]1O`: the carcinogen call by setting is: (mouse, strain Charles River CD1, females, by gavage, site: liver, lesion: hepatocellular adenoma, dosed 101 weeks, study length 101 weeks) “negative (inactive)”; (mouse, strain Charles River CD1, females, by gavage, site: lung, lesion: alveolar/bronchiolar adenoma, dosed 101 weeks, study length 101 weeks) “negative (inactive)”; (mouse, strain Charles River CD1, males, by gavage, site: liver, lesion: hepatocellular adenoma, dosed 83 weeks, study length 83 weeks) “negative (inactive)”; (mouse, strain Charles River CD1, males, by gavage, site: liver, lesion: hepatocellular carcinoma, dosed 83 weeks, study length 83 weeks) “negative (inactive)”; (rat, strain F344/DuCrj, females, by gavage, site: liver, lesion: one or several types, types not named, dosed 104 weeks, study length 104 weeks) “negative (inactive)”. Moreover, the TD50 – broadly, the 50% point of the dose-response relation for the toxic effect studied – was 1370 mg/kg/day (inactive) (mouse, strain Charles River CD1, males, by gavage, site: lung, lesion: alveolar/bronchiolar adenoma, dosed 83 weeks, study length 83 weeks); 119 mg/kg/day (inactive) (rat, strain F344/DuCrj, females, by gavage, site: mammary gland, lesion: fibroadenoma, dosed 104 weeks, study length 104 weeks); 575 mg/kg/day (inactive) (rat, strain F344/DuCrj, males, by gavage, site: liver, lesion: hepatocellular adenoma, dosed 104 weeks, study length 104 weeks); 1740 mg/kg/day (inactive) (rat, strain F344/DuCrj, males, by gavage, site: liver, lesion: hepatocellular carcinoma, dosed 104 weeks, study length 104 weeks); 9.27 mg/kg/day (inactive) (rat, strain F344/DuCrj, males, by gavage, site: testis, lesion: interstitial-cell tumor, dosed 104 weeks, study length 104 weeks).

With `CCSCC[C@H](N)C(=O)O`, the carcinogen call (rat, strain Wistar, males, in feed, site: liver, lesion: carcinoma, dosed 34 weeks, study length 52 weeks) is “positive”.

Turning to `Cc1cc(Cc2ccc(N)c(C)c2)ccc1N`, the TD50 (rat, strain Charles River CD (Sprague-Dawley), females, in feed, site: liver, lesion: cholangiocarcinoma, dosed 82 weeks, study length 82 weeks) is 96.3 mg/kg/day; the TD50 (rat, strain Charles River CD (Sprague-Dawley), females, in feed, site: liver, lesion: hepatocellular adenoma, dosed 82 weeks, study length 82 weeks) stood at 30.5 mg/kg/day; the TD50 (rat, strain Charles River CD (Sprague-Dawley), females, in feed, site: liver, lesion: hepatocellular carcinoma, dosed 82 weeks, study length 82 weeks) was 7.92 mg/kg/day; the TD50 (rat, strain Charles River CD (Sprague-Dawley), males, in feed, site: liver, lesion: hemangioma, dosed 68 weeks, study length 68 weeks) is 35.2 mg/kg/day; the TD50 (rat, strain Charles River CD (Sprague-Dawley), males, in feed, site: liver, lesion: hepatocellular adenoma, dosed 68 weeks, study length 68 weeks) worked out at 17 mg/kg/day; the TD50 (rat, strain Charles River CD (Sprague-Dawley), males, in feed, site: liver, lesion: hepatocellular carcinoma, dosed 68 weeks, study length 68 weeks) is 12.4 mg/kg/day. The TD50 (rat, strain Charles River CD (Sprague-Dawley), males, in feed, site: mammary gland, lesion: fibroadenoma, dosed 68 weeks, study length 68 weeks) is 6.91 mg/kg/day and the TD50 (rat, strain Charles River CD (Sprague-Dawley), males, in feed, site: skin, lesion: fibroma, dosed 68 weeks, study length 68 weeks) was 8.19 mg/kg/day.

Take `O=[N+]([O-])c1ccc2c3c(cccc13)CC2`: the TD50 was 354 mg/kg/day (hamster, strain Syrian Golden, females, in feed, site: bile duct, lesion: cholangioma, dosed 26 weeks, study length 71 weeks); 90.4 mg/kg/day (mouse, strain B6C3F1, females, in feed, site: any site (literature study), lesion: several types, types named in the paper, dosed 78 weeks, study length 96 weeks); 45.3 mg/kg/day (mouse, strain B6C3F1, females, in feed, site: liver + ovary, lesion: hepatocellular carcinoma + granulosa-cell tumor + luteoma + tubular adenoma, dosed 78 weeks, study length 96 weeks); 45.8 mg/kg/day (mouse, strain B6C3F1, females, in feed, site: liver, lesion: hepatocellular adenoma + hepatocellular carcinoma + neoplastic nodule, dosed 78 weeks, study length 96 weeks); 45.8 mg/kg/day (mouse, strain B6C3F1, females, in feed, site: liver, lesion: hepatocellular carcinoma, dosed 78 weeks, study length 96 weeks); 1320 mg/kg/day (mouse, strain B6C3F1, females, in feed, site: lung, lesion: alveolar/bronchiolar adenoma + alveolar/bronchiolar carcinoma, dosed 78 weeks, study length 96 weeks). The TD50 runs as follows: (mouse, strain B6C3F1, females, in feed, site: ovary, lesion: granulosa-cell tumor + luteoma + tubular adenoma, dosed 78 weeks, study length 96 weeks) 217 mg/kg/day; (mouse, strain B6C3F1, females, in feed, site: ovary, lesion: tubular adenoma, dosed 78 weeks, study length 96 weeks) 395 mg/kg/day; (rat, strain Fischer 344, females, in feed, site: any site (literature study), lesion: several types, types named in the paper, dosed 78 weeks, study length 101 weeks) 6.44 mg/kg/day; (rat, strain Fischer 344, females, in feed, site: clitoral gland + ear canal + lung + mammary gland, lesion: carcinoma, NOS + carcinosarcoma + ceruminous carcinoma + squamous-cell carcinoma + alveolar/bronchiolar adenoma + alveolar/bronchi, dosed 78 weeks, study length 101 weeks) 5.98 mg/kg/day; (rat, strain Fischer 344, females, in feed, site: clitoral gland, lesion: carcinoma, NOS, dosed 78 weeks, study length 101 weeks) 52.2 mg/kg/day; (rat, strain Fischer 344, females, in feed, site: ear canal, lesion: carcinosarcoma + ceruminous carcinoma + squamous-cell carcinoma, dosed 78 weeks, study length 101 weeks) 14.9 mg/kg/day. Further, the TD50 (rat, strain Fischer 344, females, in feed, site: ear canal, lesion: ceruminous carcinoma, dosed 78 weeks, study length 101 weeks) was 17.4 mg/kg/day; the TD50 (rat, strain Fischer 344, females, in feed, site: ear canal, lesion: squamous-cell carcinoma, dosed 78 weeks, study length 101 weeks) was 90.5 mg/kg/day; the TD50 (rat, strain Fischer 344, females, in feed, site: lung, lesion: alveolar/bronchiolar adenoma + alveolar/bronchiolar carcinoma, dosed 78 weeks, study length 101 weeks) was 9.63 mg/kg/day; the TD50 (rat, strain Fischer 344, females, in feed, site: mammary gland, lesion: adenocarcinoma, NOS + papillary cystadenocarcinoma, NOS, dosed 78 weeks, study length 101 weeks) was 77.9 mg/kg/day; the TD50 (rat, strain Fischer 344, females, in feed, site: mammary gland, lesion: adenocarcinoma, NOS, dosed 78 weeks, study length 101 weeks) is 81.7 mg/kg/day; the TD50 (rat, strain Fischer 344, males, in feed, site: any site (literature study), lesion: several types, types named in the paper, dosed 74 weeks, study length 101 weeks) was found to be 5.58 mg/kg/day. The TD50 is, setting by setting: (rat, strain Fischer 344, males, in feed, site: ear canal + lung, lesion: ceruminous carcinoma + squamous-cell carcinoma + alveolar/bronchiolar adenoma + alveolar/bronchiolar carcinoma, dosed 74 weeks, study length 101 weeks) 6.45 mg/kg/day; (rat, strain Fischer 344, males, in feed, site: ear canal, lesion: ceruminous carcinoma + squamous-cell carcinoma, dosed 74 weeks, study length 101 weeks) 7.88 mg/kg/day; (rat, strain Fischer 344, males, in feed, site: ear canal, lesion: ceruminous carcinoma, dosed 74 weeks, study length 101 weeks) 8.92 mg/kg/day; (rat, strain Fischer 344, males, in feed, site: ear canal, lesion: squamous-cell carcinoma, dosed 74 weeks, study length 101 weeks) 68.2 mg/kg/day; (rat, strain Fischer 344, males, in feed, site: kidney, lesion: tubular-cell adenoma + tubular-cell adenocarcinoma, dosed 74 weeks, study length 101 weeks) 42.9 mg/kg/day; (rat, strain Fischer 344, males, in feed, site: liver, lesion: hepatocellular adenoma + hepatocellular carcinoma + neoplastic nodule, dosed 74 weeks, study length 101 weeks) 71.4 mg/kg/day. In addition, the TD50 by setting is: (rat, strain Fischer 344, males, in feed, site: lung, lesion: alveolar/bronchiolar adenoma + alveolar/bronchiolar carcinoma, dosed 74 weeks, study length 101 weeks) 29.9 mg/kg/day; (rat, strain Fischer 344, males, in feed, site: lung, lesion: alveolar/bronchiolar carcinoma, dosed 74 weeks, study length 101 weeks) 35.1 mg/kg/day; (rat, strain Fischer 344, males, in feed, site: thyroid gland, lesion: follicular-cell adenoma + papillary adenoma, dosed 74 weeks, study length 101 weeks) 58.5 mg/kg/day; (rat, strain Fischer 344, males, in feed, site: thyroid gland, lesion: follicular-cell carcinoma + papillary adenocarcinoma, dosed 74 weeks, study length 101 weeks) 37.7 mg/kg/day. Also, the carcinogen call (mouse, strain B6C3F1, males, in feed, site: any site (literature study), lesion: several types, types named in the paper, dosed 78 weeks, study length 95 weeks) was “negative (inactive)”.

Consider `CN(C)C(=O)NC1CC2CC1C1CCCC21` (stereo not given), for which the carcinogen call is, setting by setting: (mouse, strain B6AKF1, females, oral dosing, site: any site (literature study), lesion: several types, types named in the paper, dosed 76 weeks, study length 76 weeks) “negative (inactive)”; (mouse, strain B6AKF1, females, oral dosing, site: liver, lesion: hepatoma, dosed 76 weeks, study length 76 weeks) “negative (inactive)”; (mouse, strain B6AKF1, females, oral dosing, site: lung, lesion: adenoma, dosed 76 weeks, study length 76 weeks) “negative (inactive)”; (mouse, strain B6AKF1, males, oral dosing, site: any site (literature study), lesion: several types, types named in the paper, dosed 76 weeks, study length 76 weeks) “negative (inactive)”; (mouse, strain B6AKF1, males, oral dosing, site: liver, lesion: hepatoma, dosed 76 weeks, study length 76 weeks) “negative (inactive)”; (mouse, strain B6AKF1, males, oral dosing, site: lung, lesion: adenoma, dosed 76 weeks, study length 76 weeks) “negative (inactive)”. Moreover, the carcinogen call runs as follows: (mouse, strain B6C3F1, females, oral dosing, site: liver, lesion: hepatoma, dosed 76 weeks, study length 76 weeks) “negative (inactive)”; (mouse, strain B6C3F1, males, oral dosing, site: lung, lesion: several types, types named in the paper, dosed 76 weeks, study length 76 weeks) “negative (inactive)”. Besides, the TD50 is 1230 mg/kg/day (inactive) (mouse, strain B6C3F1, females, oral dosing, site: any site (literature study), lesion: several types, types named in the paper, dosed 76 weeks, study length 76 weeks); 1230 mg/kg/day (inactive) (mouse, strain B6C3F1, females, oral dosing, site: lung, lesion: adenoma, dosed 76 weeks, study length 76 weeks); 259 mg/kg/day (inactive) (mouse, strain B6C3F1, males, oral dosing, site: any site (literature study), lesion: several types, types named in the paper, dosed 76 weeks, study length 76 weeks); 359 mg/kg/day (inactive) (mouse, strain B6C3F1, males, oral dosing, site: liver, lesion: hepatoma, dosed 76 weeks, study length 76 weeks).
